For orientation: EC50 means the concentration that produces a half-maximal response.

Where two headings read alike, the source gives them in different places.

The target of the experiment is T1, recombinant ENOX2 (tNOX) (Homo sapiens, UniProt Q16206).
T1 sequence (Q16206 1-610): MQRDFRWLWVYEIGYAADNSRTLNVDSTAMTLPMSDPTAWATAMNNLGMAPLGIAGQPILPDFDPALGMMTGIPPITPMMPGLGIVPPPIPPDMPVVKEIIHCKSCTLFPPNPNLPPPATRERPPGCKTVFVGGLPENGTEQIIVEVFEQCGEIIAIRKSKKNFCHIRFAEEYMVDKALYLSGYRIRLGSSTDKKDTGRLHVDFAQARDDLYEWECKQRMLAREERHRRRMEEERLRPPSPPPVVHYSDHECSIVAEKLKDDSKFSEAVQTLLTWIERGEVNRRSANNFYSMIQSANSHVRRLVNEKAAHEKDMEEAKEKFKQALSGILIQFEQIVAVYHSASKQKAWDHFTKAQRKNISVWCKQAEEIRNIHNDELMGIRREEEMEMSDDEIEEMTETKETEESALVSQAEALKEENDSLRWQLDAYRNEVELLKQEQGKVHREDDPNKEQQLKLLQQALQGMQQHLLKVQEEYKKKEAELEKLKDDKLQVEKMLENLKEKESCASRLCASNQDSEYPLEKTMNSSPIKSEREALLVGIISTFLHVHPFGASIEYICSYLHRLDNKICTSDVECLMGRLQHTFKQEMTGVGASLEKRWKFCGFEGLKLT
The experiment can be described thus: NADH oxidation, A340. It counts as biochemical.

In the case of `Oc1ccc(C2=Cc3ccc(O)cc3OC2)cc1` [phenoxodiol], the half-maximal effective concentration (EC50) is 330 ± 153 nM. “2H-1-benzopyran-7-0,1,3-(4-hydroxyphenyl) [ME-143]”: under “150 µM NADH, 25 mM Tris-MES pH 7.2, 100 µM GSH, 1 mM KCN, 37 °C, inhibition”, the EC50 was approximately 50 nM.

The values are drawn from publication PMC7592813 (Oncology Research, 2014).
